Data taken from patent US12203089B2, “Plants having increased tolerance to herbicides” (BASF SE, priority 2015, dated 2025).

Experiments:
Format in all cases: in vivo
[1] = tested on: Brassica napus expressing BnaA03g55200D (SEQ ID 12) variant S1041L; assay: Greenhouse herbicide tolerance, post emergent; settings: 7 days after treatment
Description: (§1) T1/T2 transgenic plants of Brassica napus containing cellulose synthase sequences or mutated gene variants thereof are tested for improved tolerance to herbicides in greenhouse studies with azine herbicides. For the pre-emergence treatment, the herbicides are applied directly after sowing by means of finely distributing nozzles. The containers are irrigated gently to promote germination and growth and subsequently covered with transparent plastic hoods until the plants have rooted. This cover causes uniform germination of the test plants, unless this has been impaired by the herbicides. For post emergence treatment, the test plants are first grown to a height of 3 to 15 cm, depending on the plant habit, and only then treated with the herbicides. For this purpose, the test plants are either sown directly, and grown in the same containers or they are first grown separately and transplanted into the test containers a few days prior to treatment.
(§2) Herbicide injury evaluations are taken at 1, 2 and 3 weeks after treatment. Plant biomass reduction is rated on a scale of 0% to 100%, 0% being no reduction of biomass compared to untreated control, and 100% being complete absence of biomass.

[2] = tested on: Brassica napus expressing BnaAnng01240D (SEQ ID 20) variant S1041L; assay: Greenhouse herbicide tolerance, post emergent; settings: 7 days after treatment
Description: as §1, §2

[3] = tested on: Brassica napus expressing BnaA01g04600D (SEQ ID 21) variant G1012R; assay: 6-well plate injury test, T1 seeds on vermiculite; settings: BnaA01g04600D G1012R event 1, 7 days after treatment
[4] = tested on: Brassica napus wildtype; assay: 6-well plate injury test, seeds on vermiculite
Description: Transgenic Brassica napus plants are assayed for improved tolerance to azine herbicides like e. g. 6-cyclopentyl-N4-(2,3,4,5,6-pentafluorophenyl)-1,3,5-triazine-2,4-diamine in 6-well plates. Therefore, 5-6 T1 seeds are sown on vermiculite and watered with half-strength murashige skoog nutrient solution, pH 5.8 (Murashige and Skoog (1962) Physiologia Plantarum 15: 473-497). Compounds are dissolved in dimethylsulfoxid (DMSO) and added to the medium (final DMSO concentration 0.1%). Multi well plates are incubated in a growth chamber at 22° C., 75% relative humidity and 110 μmol Phot*m^−2*s^−1 with 14: 10 h light: dark photoperiod. Growth inhibition is evaluated seven to ten days after seeding in comparison to wild type plants. Plant injury is rated on a scale of 0% to 100%, 0% being no injury and 100% being complete death.

[5] = tested on: Brassica napus wildtype; assay: Greenhouse herbicide tolerance, pre emergent; settings: 1.95 g/ha, 7 days after treatment
Description: as §1, §2

[6] = tested on: Brassica napus expressing BnaA03g52020D (SEQ ID 15) variant G1015R; assay: Greenhouse herbicide tolerance, pre emergent; settings: 7 days after treatment
Description: as §1, §2

[7] = tested on: Brassica napus expressing BnaAnng01240D (SEQ ID 20) variant S1038F; assay: Greenhouse herbicide tolerance, pre emergent; settings: 7 days after treatment
Description: as §1, §2

[8] = tested on: Brassica napus expressing BnaA03g55200D (SEQ ID 12) variant S1038F; assay: 6-well plate injury test, T1 seeds on vermiculite; settings: 7 days after treatment
[9] = tested on: Brassica napus expressing BnaA03g55200D (SEQ ID 12) variant S1041L; assay: 6-well plate injury test, T1 seeds on vermiculite; settings: 7 days after treatment

Nc1nc(Nc2nc(F)c(F)c(Cl)c2F)nc(C2(F)CCCC2)n1 [N2-(4-chloro-3,5,6-trifluoro-2-pyridyl)-6-(1-fluorocyclopentyl)-1,3,5-triazine-2,4-diamine]
average phytotox value ([1]; 7.8 g/ha): 24% | average phytotox value ([1]; 15.6 g/ha): 53% | average phytotox value ([1]; 31.25 g/ha): 62% | average phytotox value ([1]; 62.5 g/ha): 76% | average phytotox value ([2]; 7.8 g/ha): 6% | average phytotox value ([2]; 15.6 g/ha): 9% | average phytotox value ([2]; 31.25 g/ha): 54% | average phytotox value ([2]; 62.5 g/ha): 64% | average phytotox value ([3]; 5*10-7): 75% | average phytotox value ([3]; 5*10^-8M): 10% | average phytotox value ([3]; 10^-6M): 80% | average phytotox value ([3]; 10^-7M): 10% | average phytotox value ([3]; 10^-8M): 0% | average phytotox value ([4]; 5*10-7, 7 days after treatment): 78% | average phytotox value ([4]; 5*10^-8M, 7 days after treatment): 18% | average phytotox value ([4]; 10^-6M, 7 days after treatment): 85% | average phytotox value ([4]; 10^-7M, 7 days after treatment): 56% | average phytotox value ([4]; 10^-8M, 7 days after treatment): 8%

Nc1nc(Nc2c(F)c(F)c(F)c(F)c2F)nc(C2CCCC2)n1 [6-cyclopentyl-N4-(2,3,4,5,6-pentafluorophenyl)-1,3,5-triazine-2,4-diamine]
average phytotox value [5]: 18% | average phytotox value ([6]; 1.95 g/ha): 27% | average phytotox value ([6]; 3.9 g/ha): 0% | average phytotox value ([6]; 7.8 g/ha): 0% | average phytotox value ([6]; 15.6 g/ha): 21% | average phytotox value ([7]; 1.95 g/ha): 1% | average phytotox value ([7]; 3.9 g/ha): 14% | average phytotox value ([7]; 7.8 g/ha): 8% | average phytotox value ([7]; 15.6 g/ha): 26% | average phytotox value ([1]; 3.9 g/ha): 15% | average phytotox value ([1]; 7.8 g/ha): 27% | average phytotox value ([1]; 15.6 g/ha): 42% | average phytotox value ([1]; 31.25 g/ha): 51% | average phytotox value ([8]; BnaA03g55200D S1038F event 1, 5*10^-8M): 40% | average phytotox value ([8]; BnaA03g55200D S1038F event 1, 10^-6M): 80% | average phytotox value ([8]; BnaA03g55200D S1038F event 1, 10^-7M): 75% | average phytotox value ([8]; BnaA03g55200D S1038F event 1, 10^-8M): 15% | average phytotox value ([8]; BnaA03g55200D S1038F event 1, 10^-9M): 0% | average phytotox value ([8]; BnaA03g55200D S1038F event 2, 5*10^-8M): 65% | average phytotox value ([8]; BnaA03g55200D S1038F event 2, 10^-6M): 90% | average phytotox value ([8]; BnaA03g55200D S1038F event 2, 10^-7M): 75% | average phytotox value ([8]; BnaA03g55200D S1038F event 2, 10^-8M): 0% | average phytotox value ([8]; BnaA03g55200D S1038F event 2, 10^-9M): 0% | average phytotox value ([8]; BnaA03g55200D S1038F event 3, 5*10^-8M): 65% | average phytotox value ([8]; BnaA03g55200D S1038F event 3, 10^-6M): 90% | average phytotox value ([8]; BnaA03g55200D S1038F event 3, 10^-7M): 80% | average phytotox value ([8]; BnaA03g55200D S1038F event 3, 10^-8M): 0% | average phytotox value ([8]; BnaA03g55200D S1038F event 3, 10^-9M): 0% | average phytotox value ([9]; BnaA03g55200D S1041L event 1, 5*10^-8M): 35% | average phytotox value ([9]; BnaA03g55200D S1041L event 1, 10^-6M): 95% | average phytotox value ([9]; BnaA03g55200D S1041L event 1, 10^-7M): 75% | average phytotox value ([9]; BnaA03g55200D S1041L event 1, 10^-8M): 0% | average phytotox value ([9]; BnaA03g55200D S1041L event 1, 10^-9M): 0% | average phytotox value ([9]; BnaA03g55200D S1041L event 2, 5*10^-8M): 50% | average phytotox value ([9]; BnaA03g55200D S1041L event 2, 10^-6M): 90% | average phytotox value ([9]; BnaA03g55200D S1041L event 2, 10^-7M): 80% | average phytotox value ([9]; BnaA03g55200D S1041L event 2, 10^-8M): 10% | average phytotox value ([9]; BnaA03g55200D S1041L event 2, 10^-9M): 0% | average phytotox value ([9]; BnaA03g55200D S1041L event 3, 5*10^-8M): 60% | average phytotox value ([9]; BnaA03g55200D S1041L event 3, 10^-6M): 85% | average phytotox value ([9]; BnaA03g55200D S1041L event 3, 10^-7M): 70% | average phytotox value ([9]; BnaA03g55200D S1041L event 3, 10^-8M): 0% | average phytotox value ([9]; BnaA03g55200D S1041L event 3, 10^-9M): 0% | average phytotox value ([9]; BnaA03g55200D S1041L event 4, 5*10^-8M): 50% | average phytotox value ([9]; BnaA03g55200D S1041L event 4, 10^-6M): 85% | average phytotox value ([9]; BnaA03g55200D S1041L event 4, 10^-7M): 60% | average phytotox value ([9]; BnaA03g55200D S1041L event 4, 10^-8M): 10% | average phytotox value ([9]; BnaA03g55200D S1041L event 4, 10^-9M): 0%
